Tests used:
hTLR7 = target: T1, hTLR7 (Homo sapiens, UniProt Q9NYK1); test: TLR7 reporter assay in HEK-Blue cells (SEAP, Quanti-Blue); format: cell-based; conditions: 24 hours incubation, SEAP absorbance at 620 nm
T1 construct: host or cells: HEK-Blue hTLR7 (HEK293-derived SEAP reporter cells)
T1 sequence (Q9NYK1 27-1049): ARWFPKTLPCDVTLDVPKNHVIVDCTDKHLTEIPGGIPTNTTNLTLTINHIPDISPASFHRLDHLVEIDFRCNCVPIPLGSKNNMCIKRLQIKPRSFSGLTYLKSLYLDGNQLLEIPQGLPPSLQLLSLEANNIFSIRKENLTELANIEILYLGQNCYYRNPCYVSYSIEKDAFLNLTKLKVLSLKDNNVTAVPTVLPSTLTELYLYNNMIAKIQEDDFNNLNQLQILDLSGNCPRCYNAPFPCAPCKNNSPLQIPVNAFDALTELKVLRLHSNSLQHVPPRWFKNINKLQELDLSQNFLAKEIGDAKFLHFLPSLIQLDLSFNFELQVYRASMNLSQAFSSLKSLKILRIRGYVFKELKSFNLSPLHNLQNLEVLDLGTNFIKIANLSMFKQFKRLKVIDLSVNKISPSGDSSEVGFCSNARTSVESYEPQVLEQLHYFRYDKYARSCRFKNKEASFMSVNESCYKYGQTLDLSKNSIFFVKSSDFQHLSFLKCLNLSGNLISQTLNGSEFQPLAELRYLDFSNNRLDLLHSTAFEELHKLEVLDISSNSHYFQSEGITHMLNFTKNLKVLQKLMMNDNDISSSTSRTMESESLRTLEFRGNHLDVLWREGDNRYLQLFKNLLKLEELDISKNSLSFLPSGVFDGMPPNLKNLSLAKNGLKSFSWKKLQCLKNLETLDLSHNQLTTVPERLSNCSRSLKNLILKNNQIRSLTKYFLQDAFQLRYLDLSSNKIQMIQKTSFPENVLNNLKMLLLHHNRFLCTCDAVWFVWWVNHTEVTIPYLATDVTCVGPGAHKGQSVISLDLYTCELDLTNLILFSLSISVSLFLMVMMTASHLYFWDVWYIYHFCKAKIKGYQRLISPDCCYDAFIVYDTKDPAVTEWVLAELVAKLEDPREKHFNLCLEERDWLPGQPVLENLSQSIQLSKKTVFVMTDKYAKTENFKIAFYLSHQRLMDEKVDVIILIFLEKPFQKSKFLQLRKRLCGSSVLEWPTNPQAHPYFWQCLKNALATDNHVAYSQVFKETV
Method: (§1) HEK-Blue™ TLR7 and TLR8 cell lines were obtained from InvivoGen (San Diego, CA, USA). HEK-Blue cells were cultured in DMEM medium hi glucose (Gibco-10569010) supplemented with 10% HI-FBS (Aus origin) (Gibco-10100-147), 1% penicillin/streptomycin (Gibco-15140-122-100 ml) as per manufacturer's recommendation. In addition, specific antibiotic mixtures were added to the culture. 100 μg/ml Zeocin (11006-33-0), 10 μg/ml Blasticidin (ant-bl-05), 50 μg/ml Normocin (ANT-NR-1-500 MG) for HEK-Blue™ hTLR7 and 100 μg/ml Zeocin, 30 μg/ml Blasticidin, 50 μg/ml Normocin for HEK-Blue™ hTLR8 cells (all from InvivoGen).
(§2) All the compounds were prepared in 100% DMSO (Sigma-D2650). The compounds were serially diluted in 100% DMSO (3 fold) up to 10 point dose response curve starting with 30 μM; final concentration of DMSO in the plate was 0.3%. Resiquimod and TL8-506 (InvivoGen-tlrl-t18506) were used as controls. 0.3% DMSO and 10 μM Resiquimod were used as min and max respectively, and % activation was calculated using following formula:
(§3) % Activation: {100−(max absorbance−absorbance)/(max absorbance−min absorbance)}×100.
(§4) For stimulation with TLR7/8 agonists, cells were resuspended in complete media and 40 μl of cell suspension (10,000 cells/well) was seeded on day 1 in 384 well assay plate (Thermo Scientific™ Nunc-164688) having pre-dispensed compounds with Echo Liquid handler. The plate was spun at 100 g for 1 min to settle down the cells and incubated at 37° C. with 5% CO2 for 24 hours. For measuring production of SEAP after 24 hrs of incubation, 10 μl of Quanti-Blue™ solution (InvivoGen rep-qbs2) prepared according to manufacturer's instructions was added in dark to the assay plate and incubated at 37° C. with 5% CO2 for 30 min. Post incubation, the absorbance was measured at 620 nm in Tecan spark (Spark control Magellan). EC50 were determined using Graph Pad Prism Statistical software (Version 7.05), with individual data points represent the absorbance values of duplicates.

hTLR8 = target: T2, hTLR8 (Homo sapiens, UniProt Q9NR97); test: TLR8 reporter assay in HEK-Blue cells (SEAP, Quanti-Blue); format: cell-based; conditions: 24 hours incubation, SEAP absorbance at 620 nm
T2 construct: host or cells: HEK-Blue hTLR8 (HEK293-derived SEAP reporter cells)
T2 sequence (Q9NR97 27-1041): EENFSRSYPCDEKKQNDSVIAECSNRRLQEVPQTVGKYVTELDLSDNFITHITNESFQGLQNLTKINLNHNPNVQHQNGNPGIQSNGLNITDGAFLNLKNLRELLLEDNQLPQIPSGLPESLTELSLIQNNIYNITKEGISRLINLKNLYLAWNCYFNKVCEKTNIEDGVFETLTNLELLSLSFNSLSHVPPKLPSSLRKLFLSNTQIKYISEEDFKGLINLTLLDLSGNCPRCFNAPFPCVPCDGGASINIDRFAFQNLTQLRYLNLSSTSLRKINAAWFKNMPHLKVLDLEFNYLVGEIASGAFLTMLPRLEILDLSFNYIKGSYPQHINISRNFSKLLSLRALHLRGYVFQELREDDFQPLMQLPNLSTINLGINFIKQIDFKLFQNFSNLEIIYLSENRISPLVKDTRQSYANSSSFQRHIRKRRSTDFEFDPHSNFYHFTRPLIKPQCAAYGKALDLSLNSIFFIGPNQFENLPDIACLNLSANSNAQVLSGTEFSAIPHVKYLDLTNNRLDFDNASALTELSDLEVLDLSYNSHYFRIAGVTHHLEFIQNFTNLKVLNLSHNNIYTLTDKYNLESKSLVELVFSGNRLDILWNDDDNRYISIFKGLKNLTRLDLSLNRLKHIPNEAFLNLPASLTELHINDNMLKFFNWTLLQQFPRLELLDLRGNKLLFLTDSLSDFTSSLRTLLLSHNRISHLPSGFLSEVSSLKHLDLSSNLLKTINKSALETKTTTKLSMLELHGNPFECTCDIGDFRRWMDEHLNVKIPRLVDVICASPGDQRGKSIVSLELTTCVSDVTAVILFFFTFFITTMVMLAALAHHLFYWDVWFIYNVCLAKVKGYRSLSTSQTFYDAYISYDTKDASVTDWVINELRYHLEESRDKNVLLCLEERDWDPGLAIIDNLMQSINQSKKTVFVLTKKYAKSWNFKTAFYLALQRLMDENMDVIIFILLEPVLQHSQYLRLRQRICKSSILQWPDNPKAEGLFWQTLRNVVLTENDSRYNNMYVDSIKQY
Method: as §1, §2, §3, §4

EC50 (hTLR7) [nM] | EC50 (hTLR8) [nM] | SMILES
100 to 1000 | 1000 to 10000 | CCOCc1nc2c(N)nc3ccccc3c2n1CC(C)(C)OCCCCN1CCN(CCSC)CC1 [Example 26]
1000 to 10000 | > 10000 | CCOCc1nc2c(N)nc3ccccc3c2n1CC(C)(C)OCCNC(=O)CS(=O)(=O)O [Example 25]
100 to 1000 | 1000 to 10000 | CCOCc1nc2c(N)nc3ccccc3c2n1CC(C)(C)OCCNC(=O)CN1CCN(C)CC1 [Example 16]
< 10 | 100 to 1000 | CCOCc1nc2c(N)nc3ccccc3c2n1CC(C)(C)OCCCCCCN1CCN(C)CC1 [Example 5]
> 10000 | > 10000 | CCOCc1nc2c(N)nc3ccccc3c2n1CC(C)(C)OCCNC(=O)CO [Example 20]
100 to 1000 | > 10000 | CCOCc1nc2c(N)nc3ccccc3c2n1CC(C)(C)OCCNC(=O)CC(=O)OC [Example 22]
10 to 100 | 1000 to 10000 | CCOCc1nc2c(N)nc3ccccc3c2n1CC(C)(C)OCCCCN1CCN(CCO)CC1 [Example 12]
< 10 | 1000 to 10000 | CCOCc1nc2c(N)nc3ccccc3c2n1CC(C)(C)OCCN1CCN(C)CC1 [Example 1]
100 to 1000 | > 10000 | CCOCc1nc2c(N)nc3ccccc3c2n1CC(C)(C)OCCNC(=O)CSC [Example 23]
100 to 1000 | 100 to 1000 | CCOCc1nc2c(N)nc3ccccc3c2n1CC(C)(C)OCCNC(=O)CS(C)(=O)=O [Example 24]
100 to 1000 | 100 to 1000 | CCOCc1nc2c(N)nc3ccccc3c2n1CC(C)(C)OC(=O)CN1CCN(C)CC1 [Example 17]
10 to 100 | 1000 to 10000 | CCOCc1nc2c(N)nc3ccccc3c2n1CC(C)(C)OCCCC(=O)N1CCN(C)CC1 [Example 15]
100 to 1000 | > 10000 | CCOCc1nc2c(N)nc3ccccc3c2n1CC(C)(C)OCCNC(=O)C(C)(C)O [Example 21]
10 to 100 | 1000 to 10000 | CCOCc1nc2c(N)nc3ccccc3c2n1CC(C)(C)OCCCCO [Example 6]

From patent publication US20260193250A1, “TOLL-LIKE RECEPTOR 7 AGONISTS AS IMMUNE-STIMULATORS TO ELICIT THE INNATE ANTITUMOR IMMUNITY” (Merck Patent GmbH, priority 2022, published 2026)
